Experimental data as given in PMC8453901, “GLPG1205, a GPR84 Modulator: Safety, Pharmacokinetics, and Pharmacodynamics in Healthy Subjects” (Clinical Pharmacology in Drug Development, 2021).
Where two headings read alike, the source gives them in different places.

Key:
CYP2C19 = test system: CYP2C19; parameters: method as in data on file at Galapagos, 8, 9; conditions: 100 mg once daily, healthy male subjects; ref data on file at Galapagos, 8, 9; cited from earlier work
[1] = parameters: method as in PMID 32902984; conditions: human and animals; cited from earlier work
[2] = Study 1 SAD part: plasma pharmacokinetics after single oral doses; format: in vivo, human; conditions: for half-life / Tmax / Cmax / AUC(0-inf) / AUC / concentration at 24 h: male, human, plasma, oral; for AUC: read-out: AUC0‐24h; for concentration at 24 h: read-out: C24h
Description: GLPG1205 or matching placebo were administered as an oral nanosuspension in the morning in a fed condition as an outpatient. For both the single ascending doses (SADs) and multiple ascending doses (MADs) parts of the study, subjects attended a screening visit (21 to 2 days before first study drug administration) and a follow‐up visit (7 to 10 days after the last dose).
The SAD part of the study comprised 16 healthy male subjects in 2 alternating cohorts (A and B, n = 8 each). Cohort A received GLPG1205 10, 90, 400, and 800 mg or matching placebo, and cohort B received GLPG1205 30, 200, and 600 mg or matching placebo. Subjects were randomly assigned to receive GLPG1205 or matching placebo in a 3:1 ratio once at the beginning of the study. In addition, subjects in cohorts A and B were randomized to a treatment sequence. […] An interval of at least 3 days was enforced between 2 dose levels (between cohort A and B). Subjects were kept in‐house from the evening of day –1 to ≈26 hours after dosing (morning of day 2).
In the SAD part of study 1, blood samples (2 mL) for PK assessments were obtained before dosing and at multiple time points on the day of study drug administration (before dosing and 0.5, 1, 2, 4, 6, 8, and 12 hours after dosing) and at 24, 48, and 72 hours after dosing. The predose sample for the next dose level was also used in PK analysis (168 hours after dosing). […] In the MAD part of study 1, blood samples (2 mL) were obtained on days 1, 2, 4, 5, 6, 8, 10, 12, 14, 15, 16, 17, and 18 and at follow‐up (approximately 7 to 10 days after the last dose). These PK blood samples were taken after dosing (1, 2, 4, 6, 8, 12, and 24 hours) on day 1; before dosing on days 4, 6, 8, and 10; and after dosing (1, 2, 4, 6, 8, 12, 24, 72, and 96 hours) on day 14. The following additional PK blood samples were also taken: cohort C, before dosing on day 5; and cohorts D and E, before dosing on day 12. Urine samples were obtained from fractions collected over 6‐ or 12‐hour periods after dosing on days –1, 1, 2, 13, 14, and 15; samples obtained on days –1 and 13 were for cytochrome P450 (CYP) induction analysis only. In study 2, blood samples (2 mL) were obtained on days 1, 2, 5, 7, 10, 14, 15, 17, and 20 and at follow‐up (approximately 21 days after end of study medication administration). Blood samples were taken before dosing and at 1, 2, 4, 6, 8, 12, and 24 hours after drug administration on days 1 and 14 and before dosing on other sampling days.
Blood samples were immediately chilled (ice bath), and the plasma was separated by centrifugation (4°C for 10 minutes at ≈1500 g) within 30 minutes of blood collection.
GLPG1205 plasma concentrations were determined using a validated liquid chromatography with tandem mass spectrometry method. After a protein precipitation with methanol, a chromatographic separation was performed on a Kinetex C18 column (50×3.0 mm, 2.6 μm; Phenomenex, Torrance, California) set at 40°C by using a Nexera high‐performance liquid chromatography (HPLC) system (Shimadzu, Kyoto, Japan) or an Infinity HPLC system (Agilent Technologies, Diegem, Belgium) in isocratic elution mode. A QTRAP6500, QTRAP4000, or API4000 mass spectrometer (AB Sciex, Nieuwerkerk aan den Ijssel, The Netherlands) equipped with a TurboIonSpray probe operated in the multiple reaction monitoring in positive mode was used for quantification. The calibration curves in plasma were linear over the range of 1 to 1000 ng/mL with 1/x^2 as weighting factor. The limit of quantification of the assay in the plasma samples was set at 1 ng/mL.
PK calculations were performed using Phoenix WinNonlin 6.2 (Pharsight Corporation, Palo Alto, California). […] AUC0‐inf was calculated from the area under the plasma concentration‐time curve from time 0 until the time corresponding with the last observed quantifiable concentration + Ct/λz, where Ct was the last observed quantifiable concentration and λz the first‐order terminal rate constant. […]

[3] = parameters: method as in data on file at Galapagos, 17; conditions: separate study; ref data on file at Galapagos, 17; cited from earlier work
CYP2C8 = test system: CYP2C8; parameters: method as in data on file at Galapagos; conditions: in vitro; ref data on file at Galapagos; cited from earlier work
[4] = single 10 mg, arithmetic mean (CV%)
[5] = single 30 mg, arithmetic mean (CV%)
[6] = single 90 mg, arithmetic mean (CV%)
[7] = single 200 mg, arithmetic mean (CV%)
[8] = single 400 mg, arithmetic mean (CV%)
[9] = single 600 mg, arithmetic mean (CV%)
[10] = single 800 mg, arithmetic mean (CV%)

For `O=c1nc(OC[C@@H]2COCCO2)cc2n1CCc1cc(C#CC3CC3)ccc1-2` [GLPG1205, 9‐cyclopropylethynyl‐2‐((S)‐1‐[1,4]dioxan‐2‐ylmethoxy)‐6,7‐dihydropyrimido[6,1‐a]isoquinolin‐4‐one], the “effect on exposure of CYP2C19” value (CYP2C19) is given as “did not affect the exposure”, the plasma protein binding [1] is given as no less than 92% and the half-life ([2]; after single administration, 10 to 800 mg, read-out: arithmetic mean apparent terminal half-life (t1/2,λz) range) is given as 30.1 to 140 h. It also gave a Tmax ([2]; after single administration, 10 to 800 mg, read-out: median tmax range) of 2 to 4 h, a Cmax [2, 4] of 94.2 ng/mL and an AUC(0-inf) ([2]; single 10 mg, arithmetic mean (CV%), N = 3) of 3310 ng·h/mL. For the same molecule, the AUC [2, 4] was 1330 ng·h/mL, the concentration at 24 h [2, 4] was 39.8 ng/mL and the half-life ([2]; single 10 mg, arithmetic mean (CV%), read-out: t1/2,λz (converted)) was 32.2 h. It also gave a Cmax [2, 5] of 284 ng/mL, an AUC(0-inf) ([2]; single 30 mg, arithmetic mean (CV%), N = 4) of 11500 ng·h/mL and a half-life ([2]; single 30 mg, arithmetic mean (CV%), N = 5, read-out: t1/2,λz (converted)) of 30.1 h. The AUC [2, 5] was 4470 ng·h/mL, the concentration at 24 h [2, 5] was 144 ng/mL and the Tmax ([2]; single 30 mg, median (minimum-maximum), read-out: tmax) was 4 h. The Cmax [2, 6] was 890 ng/mL, the AUC(0-inf) ([2]; single 90 mg, arithmetic mean (CV%), N = 4) was 52300 ng·h/mL and the AUC [2, 6] was 14300 ng·h/mL. The concentration at 24 h [2, 6] was 511 ng/mL, the half-life ([2]; single 90 mg, arithmetic mean (CV%), read-out: t1/2,λz (converted)) was 57.7 h and the Tmax ([2]; single 90 mg, median (minimum-maximum), read-out: tmax) was 4 h. For the same molecule, the Cmax [2, 7] was 2200 ng/mL, the AUC(0-inf) ([2]; single 200 mg, arithmetic mean (CV%), N = 4) was 120000 ng·h/mL and the half-life ([2]; single 200 mg, arithmetic mean (CV%), N = 5, read-out: t1/2,λz (converted)) was 54.3 h. For the same molecule, the AUC [2, 7] was 35800 ng·h/mL, the concentration at 24 h [2, 7] was 1260 ng/mL and the Tmax ([2]; single 200 mg, median (minimum-maximum), read-out: tmax) was 3 h. For the same molecule, the Cmax [2, 8] was 3390 ng/mL, the AUC [2, 8] was 58000 ng·h/mL and the concentration at 24 h [2, 8] was 2150 ng/mL. For the same molecule, the half-life ([2]; single 400 mg, arithmetic mean (CV%), read-out: t1/2,λz (converted)) was 92.4 h, the AUC(0-inf) ([2]; single 400 mg, arithmetic mean, N = 2) was 224000 ng·h/mL and the Tmax ([2]; single 400 mg, median (minimum-maximum), read-out: tmax) was 4 h. It also gave a Cmax [2, 9] of 5530 ng/mL, a half-life ([2]; single 600 mg, arithmetic mean (CV%), N = 3, read-out: t1/2,λz (converted)) of 75 h and an AUC [2, 9] of 94000 ng·h/mL. It also gave a concentration at 24 h [2, 9] of 3410 ng/mL, a Tmax ([2]; single 600 mg, median (minimum-maximum), read-out: tmax) of 4 h and a Cmax [2, 10] of 7500 ng/mL. It also gave an AUC [2, 10] of 130000 ng·h/mL, a concentration at 24 h [2, 10] of 5000 ng/mL and a half-life ([2]; single 800 mg, arithmetic mean, N = 2, read-out: t1/2,λz (converted)) of 140 h. The Tmax ([2]; single 800 mg, median (minimum-maximum), read-out: tmax) was 4 h, the dose-proportionality of exposure ([2]; single doses between 10 and 800 mg) was “did not markedly deviate from dose‐proportionality” and the “food effect on GLPG1205 exposure” value [3] was “no food effect”. For the same molecule, the “inhibition of CYP2C8” value (CYP2C8) was “weak inhibition”.
